Like-named read-outs stand apart in the source and are kept apart here.
Biological target: T1, glutathione S-transferase (GST)-fused full-length human Syk protein (Homo sapiens, UniProt P43405)
T1 construct: (GST)-fused full-length human Syk protein; GST (glutathione S-transferase); purchased Carna Biosciences
Assay: Syk enzyme assay
Assay type: biochemical
Experimental: A glutathione S-transferase (GST)-fused full-length human Syk protein (Carna Biosciences), which had been generated using a Baculovirus expression system, was used in the Syk enzyme assay.
15 μl of a reaction solution (1.2 ng Syk, 20 mM HEPES, 10 mM MgCl2, 50 mM NaCl, 2 mM DTT, 0.05% BSA, pH 7.0) containing a Syk protein and a predetermined concentration of a test compound was shaken for 2 minutes, and it was then left at rest at room temperature for 13 minutes. Thereafter, 5 μl of Biotin-EDPDYEWPSA-NH2 (final concentration: 0.4 μM) serving as a substrate peptide and 5 μl of ATP (final concentration: 27 μM) were added to the reaction solution, and the obtained mixture was then shaken for 2 minutes. The reaction solution was further left at rest at room temperature for 40 minutes, so as to carry out an enzyme reaction.
Thereafter, 50 μl of a reaction termination solution [5 μg/ml Streptavidin, 0.18 μg/ml PT66-K, 30 mM HEPES (pH 7.0), 150 mM KF, 75 mM EDTA, 0.15% BSA, 0.075% Tween20], which contained Streptavidin-Xlent (Cisbio) and Mab PT66-K (Cisbio), was added to the reaction solution to terminate the enzyme reaction. At the same time, the reaction solution was left at rest at room temperature for 1 hour, so as to carry out an antigen-antibody reaction. Thereafter, using EnVision (PerkinElmer), the time-resolved fluorescence was measured at 615 nm and 665 nm, so that the phosphorylation of the substrate peptide was measured.
In addition, the following are standards for evaluating IC50 of Syk-inhibitory activity used in Table 21. • A: Up to 10 nM • B: 10 to 50 nM • C: 50 to 100 nM • D: 100 to 1000 nM The set of numbers (XYZ-xyz) given in each Example number column indicates the corresponding Example number (Example XYZ-xyz) in Table 21.

[1] = Syk enzyme assay, Test Example 1, read-out: IC50 of Syk-inhibitory activity
[2] = read-out: Syk-inhibitory activity (IC50)

## NC(=O)c1cc(F)c(N[C@H](c2ccccc2)[C@@H](N)c2ccccc2)nc1Nc1ccc2ncccc2c1 (racemic) [Example 006-135, 6-(((1R,2S)-2-amino-1,2-diphenylethyl)amino)-5-fluoro-2-(quinolin-6-ylamino)nicotinamide 6-(((1S,2R)-2-amino-1,2-diphenylethyl)amino)-5-fluoro-2-(quinolin-6-ylamino)nicotinamide]
[1]
  IC50: < 0.01 µM

## Cn1ncc2cc(Nc3nc(N[C@H](c4ccccc4)[C@@H](N)c4ccccc4)c(F)cc3C(N)=O)ccc21 (racemic) [Example 006-136, 6-(((1R,2S)-2-amino-1,2-diphenylethyl)amino)-5-fluoro-2-((1-methyl-1H-indazol-5-yl)amino)nicotinamide 6-(((1S,2R)-2-amino-1,2-diphenylethyl)amino)-5-fluoro-2-((1-methyl-1H-indazol-5-yl)amino)nicotinamide]
[1]
  IC50: < 0.01 µM

## COc1cc(Nc2nc(N[C@H](c3ccccc3)[C@@H](N)c3ccccc3)c(F)cc2C(N)=O)cc(OC)c1 (racemic) [Example 006-137, 6-(((1R,2S)-2-amino-1,2-diphenylethyl)amino)-2-((3,5-dimethoxyphenyl)amino)-5-fluoronicotinamide 6-(((1S,2R)-2-amino-1,2-diphenylethyl)amino)-2-((3,5-dimethoxyphenyl)amino)-5-fluoronicotinamide]
[1]
  IC50: 0.01 to 0.05 µM

## NC(=O)c1cc(F)c(N[C@H](c2ccccc2)[C@@H](N)c2ccccc2)nc1Nc1cccc(-n2nccn2)c1 (racemic) [Example 006-138, 2-((3-(2H-1,2,3-triazol-2-yl)phenyl)amino)-6-(((1R,2S)-2-amino-1,2-diphenylethyl)amino)-5-fluoronicotinamide 2-((3-(2H-1,2,3-triazol-2-yl)phenyl)amino)-6-(((1S,2R)-2-amino-1,2-diphenylethyl)amino)-5-fluoronicotinamide]
[1]
  IC50: 0.01 to 0.05 µM

## Cc1cncc(Nc2nc(N[C@H](c3ccccc3)[C@@H](N)c3ccccc3)c(F)cc2C(N)=O)c1 (racemic) [Example 006-140, 6-(((1R,2S)-2-amino-1,2-diphenylethyl)amino)-5-fluoro-2-((5-methylpyridin-3-yl)amino)nicotinamide 6-(((1S,2R)-2-amino-1,2-diphenylethyl)amino)-5-fluoro-2-((5-methylpyridin-3-yl)amino)nicotinamide]
[1]
  IC50: 0.05 to 0.1 µM

## NC(=O)c1cc(F)c(N[C@H](c2ccccc2)[C@@H](N)c2ccccc2)nc1Nc1ccc2cccnc2c1 (racemic) [Example 006-141, 6-(((1R,2S)-2-amino-1,2-diphenylethyl)amino)-5-fluoro-2-(quinolin-7-ylamino)nicotinamide 6-(((1S,2R)-2-amino-1,2-diphenylethyl)amino)-5-fluoro-2-(quinolin-7-ylamino)nicotinamide]
[1]
  IC50: 0.1 to 1 µM

## COCCOc1ccc2cc(Nc3nc(N[C@H](C)[C@H](C)N)c(F)cc3C(N)=O)cnc2c1 (racemic) [Example 006-183, 6-(((2R,3S)-3-aminobutan-2-yl)amino)-5-fluoro-2-((7-(2-methoxyethoxy)quinolin-3-yl)amino)nicotinamide 6-(((2S,3R)-3-aminobutan-2-yl)amino)-5-fluoro-2-((7-(2-methoxyethoxy)quinolin-3-yl)amino)nicotinamide]
[1]
  IC50: < 0.01 µM

## C[C@H](N)[C@@H](C)Nc1nc(Nc2ccnc(-n3nccn3)c2)c(C(N)=O)cc1F (racemic) [Example 006-189, 2-((2-(2H-1,2,3-triazol-2-yl)pyridin-4-yl)amino)-6-(((2R,3S)-3-aminobutan-2-yl)amino)-5-fluoronicotinamide 2-((2-(2H-1,2,3-triazol-2-yl)pyridin-4-yl)amino)-6-(((2S,3R)-3-aminobutan-2-yl)amino)-5-fluoronicotinamide]
[1]
  IC50: 0.01 to 0.05 µM

## COCCn1ncc2cc(Nc3nc(N[C@H](C)[C@H](C)N)c(F)cc3C(N)=O)ccc21 (racemic) [Example 006-197, 6-(((2R,3S)-3-aminobutan-2-yl)amino)-5-fluoro-2-((1-(2-methoxyethyl)-1H-indazol-5-yl)amino)nicotinamide 6-(((2S,3R)-3-aminobutan-2-yl)amino)-5-fluoro-2-((1-(2-methoxyethyl)-1H-indazol-5-yl)amino)nicotinamide]
[1]
  IC50: 0.01 to 0.05 µM

## NC(=O)c1cc(F)c(N[C@@H]2CCCC[C@@H]2N)nc1Nc1ccc(-c2ccccc2)nc1 (relative stereo) [Example 2-9, 6-(cis-2-aminocyclohexylamino)-5-fluoro-2-((6-phenylpyridin-3-yl)amino)nicotinamide]
[2]
  IC50: ≤ 1 µM

## COc1ccc(Nc2nc(N[C@@H]3CCCC[C@@H]3N)c(F)cc2C(N)=O)cn1 (relative stereo) [Example 2-10, 6-(cis-2-aminocyclohexylamino)-5-fluoro-2-((6-methoxypyridin-3-yl)amino)nicotinamide]
[2]
  IC50: ≤ 1 µM

## CC(=O)Nc1cc(Nc2nc(N[C@@H]3CCCC[C@@H]3N)c(F)cc2C(N)=O)ccn1 (relative stereo) [Example 004-048]
[1]
  IC50: 0.01 to 0.05 µM

## CN1CCN(c2cncc(Nc3nc(N[C@@H]4CCCC[C@@H]4N)c(F)cc3C(N)=O)c2)CC1 (relative stereo) [Example 004-052]
[1]
  IC50: 0.01 to 0.05 µM

## Cc1cc(Nc2nc(N[C@@H]3CCCC[C@@H]3N)c(F)cc2C(N)=O)cs1 (relative stereo) [Example 004-057]
[1]
  IC50: < 0.01 µM

## NC(=O)c1cc(F)c(N[C@@H]2CCCC[C@@H]2N)nc1Nc1cc(N2CCOCC2)nc2[nH]ccc12 (relative stereo) [Example 004-066, 6-(cis-2-aminocyclohexylamino)-5-fluoro-2-((6-morpholino-1H-pyrrolo[2,3-b]pyridin-4-yl)-amino)nicotinamide]
[1]
  IC50: < 0.01 µM

## NC(=O)c1cc(F)c(N[C@@H]2CCCC[C@@H]2N)nc1Nc1cc(-n2nccn2)nc2[nH]ccc12 (relative stereo) [Example 004-067, 2-((6-(2H-1,2,3-triazol-2-yl)-1H-pyrrolo[2,3-b]pyridin-4-yl)amino)-6-(cis-2-aminocyclohexylamino)-5-fluoronicotinamide]
[1]
  IC50: < 0.01 µM

## NC(=O)c1cc(F)c(N[C@@H]2CCCC[C@@H]2N)nc1Nc1ccc2[nH]ccc2c1 (relative stereo) [Example 004-070, 2-((1H-indol-5-yl)amino)-6-(cis-2-aminocyclohexylamino)-5-fluoronicotinamide]
[1]
  IC50: < 0.01 µM

## NC(=O)c1cc(F)c(N[C@@H]2CCCC[C@@H]2N)nc1Nc1cc(F)c2c(ccn2CCN2CCOCC2)c1 (relative stereo) [Example 004-080, 6-(cis-2-aminocyclohexylamino)-5-fluoro-2-((7-fluoro-1-(2-morpholinoethyl)-1H-indol-5-yl)amino)nicotinamide]
[1]
  IC50: < 0.01 µM

## COCCn1ccc2cc(Nc3nc(N[C@@H]4CCCC[C@@H]4N)c(F)cc3C(N)=O)cc(F)c21 (relative stereo) [Example 004-081, 6-(cis-2-aminocyclohexylamino)-5-fluoro-2-((7-fluoro-1-(2-methoxyethyl)-1H-indol-5-yl)-amino)nicotinamide]
[1]
  IC50: < 0.01 µM

## NC(=O)c1cc(F)c(N[C@@H]2CCCC[C@@H]2N)nc1Nc1cc(F)cc2c1ccn2CCN1CCOCC1 (relative stereo) [Example 004-083, 6-(cis-2-aminocyclohexylamino)-5-fluoro-2-((6-fluoro-1-(2-morpholinoethyl)-1H-indol-4-yl)amino)nicotinamide]
[1]
  IC50: < 0.01 µM

Source: patent US8895585B2, “Nicotinamide derivative or salt thereof” (FUJIFILM Corporation, priority 2010, dated 2014)
